From patent US20220202939A1, “PREPARATION FOR IMPROVING ACTIVITY AND/OR THERMAL STABILITY OF SUPEROXIDE DISMUTASE, AND APPLICATION THEREOF” (CHINA AGRICULTURAL UNIVERSITY, priority 2020, published 2022)

What follows are compounds tested on superoxide dismutase (SOD) (assay: Influence of small-molecule substances on SOD enzyme activity and thermal stability at 80° C.). Conditions: experimental group 1: 100 μL SOD solution (1×10^−4 mol/L) + 100 μL substance solution (1×10^−3 mol/L); water bath 80° C., 4 hours, enzyme activity every 20 minutes; vs SOD blank control; FIG. 1.
Type: biochemical
Protocol: SOD solution: Mr(SOD)=37.8 kDa, 37.8 mg of SOD was weighed and dissolved in 10 mL of phosphate buffer to obtain a stock solution of CSOD=1×10^−4 mol/L.
Experimental group 1: 100 μL of the SOD solution was taken out and added to each of […] 10 mL centrifuge tubes, and then 100 μL of the solution of each of the vitamin C, the vitamin p, the catechin, the quercetin, the myricetin, the kaempherol, the ellagic acid, and the ferulic acid was added to each of the […] centrifuge tubes. Another 100 μL of the SOD solution was taken out as blank control. The centrifuge tubes and the blank control were placed in a water bath at 80° C., incubated for 4 hours, and detected for enzyme activity every 20 minutes. […]

Q: `Cc1ncc(C[n+]2csc(CCO)c2C)c(N)n1` [Vb1, vitamin B1, reference compound] was tested. Which “activity of the SOD” value did it give?
A: Its value is “fails to improve the activity and thermal stability of SOD enzymes”.

Q: And the “thermal stability of the SOD” value?
A: Its value is “fails to improve the activity and thermal stability of SOD enzymes”.

Q: Which results are given for `O=c1oc2c(O)c(O)cc3c(=O)oc4c(O)c(O)cc1c4c23` [ellagic acid]?
A: activity of the SOD: improve the activity of the SOD; thermal stability of the SOD: significantly improve the thermal stability of the SOD

Q: How did the “activity of the SOD” value turn out when `COc1cc(/C=C/C(=O)O)ccc1O` [ferulic acid] was run?
A: The value was “improve the activity of the SOD”.

Q: What about the “thermal stability of the SOD” value of the same compound?
A: The value was “significantly improve the thermal stability of the SOD”.

Q: How did the “activity of the SOD” value turn out when `O=c1c(O)c(-c2ccc(O)cc2)oc2cc(O)cc(O)c12` [kaempherol] was run?
A: Its value is “improve the activity of the SOD”.

Q: What about the “thermal stability of the SOD” value of the same compound?
A: Its value is “significantly improve the thermal stability of the SOD”.

Q: Which results are given for `O=c1c(O)c(-c2cc(O)c(O)c(O)c2)oc2cc(O)cc(O)c12` [myricetin]?
A: activity of the SOD: improve the activity of the SOD; thermal stability of the SOD: significantly improve the thermal stability of the SOD

Q: For `O=c1c(O)c(-c2ccc(O)c(O)c2)oc2cc(O)cc(O)c12` [quercetin], which “activity of the SOD” value is on record?
A: The value was “improve the activity of the SOD”.

Q: And the “thermal stability of the SOD” value?
A: Its value is “significantly improve the thermal stability of the SOD”.

Q: For `O=C1O[C@H]([C@@H](O)CO)C(O)=C1O` [vitamin C], which “activity of the SOD” value is on record?
A: Its value is “improve the activity of the SOD”.

Q: What about the “thermal stability of the SOD” value of the same compound?
A: Its value is “significantly improve the thermal stability of the SOD”.

Q: catechin was tested. Which “activity of the SOD” value did it give?
A: The value was “improve the activity of the SOD”.

Q: And the “thermal stability of the SOD” value?
A: The value was “significantly improve the thermal stability of the SOD”.

Q: Which results are given for vitamin P?
A: activity of the SOD: improve the activity of the SOD; thermal stability of the SOD: significantly improve the thermal stability of the SOD
